ChEMBL document CHEMBL1201862, “PubChem BioAssay data set” (2004)
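Assay format: 96-well plates, 48-hour exposure. GI50 is the concentration that inhibits growth by half.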 The source made the active and inactive calls. No stated cut-off is given here; in the data, active = GI50 up to about 1.1 µM and inactive = higher.

Key:
Assay in all cases: inhibition of tumour cell growth, NCI panel, 48 h
[1] = tested on: ACHN
[2] = tested on: BT-549
[3] = tested on: CCRF-CEM
[4] = tested on: DU-145
[5] = tested on: EKVX
[6] = tested on: HCC 2998
[7] = tested on: HL-60
[8] = tested on: Hs-578T
[9] = tested on: IGROV-1
[10] = tested on: LOX IMVI
[11] = tested on: MCF7
[12] = tested on: MDA-MB-231
[13] = tested on: NCI-H226
[14] = tested on: OVCAR-3
[15] = tested on: RXF 393
[16] = tested on: SK-MEL-2
[17] = tested on: SK-MEL-5
[18] = tested on: SN12C
[19] = tested on: SNB-75
[20] = tested on: UACC-257

Measured: GI50

CN1CCOC1(C)c1ccccc1 (stereo not given)
inactive: [1] > 100 µM | [2] > 100 µM | [3] > 100 µM | [4] > 100 µM | [5] > 100 µM | [6] > 100 µM | [7] > 100 µM | [8] > 100 µM | [9] > 100 µM | [10] > 100 µM | [11] > 100 µM | [12] > 100 µM | [13] > 100 µM | [14] > 100 µM | [15] > 100 µM | [16] > 100 µM | [17] > 26.1 µM | [18] > 100 µM | [19] > 100 µM | [20] > 100 µM

CC(NNC(=O)c1ccncc1)c1ccc(Cl)cc1Cl (stereo not given)
inactive: [1] > 100 µM | [2] > 100 µM | [3] 49.4 µM | [4] > 100 µM | [5] > 100 µM | [6] > 100 µM | [7] 46.5 µM | [8] > 100 µM | [9] > 100 µM | [10] 86.5 µM | [11] > 100 µM | [12] > 100 µM | [13] > 100 µM | [14] > 100 µM | [15] > 100 µM | [16] > 100 µM | [17] 67.3 µM | [18] > 100 µM | [19] > 100 µM | [20] > 100 µM
